Measured values: patent US9617229B2, “Phenylmorpholines and analogues thereof” (Research Triangle Institute, priority 2010, dated 2017)
Counter-ions that a name gives are not always drawn.

Columns and labels:
[1] = biological target: T1, 5-HT2B receptor (Homo sapiens, UniProt P41595); assay: 5-HT2B activity, antagonist; type: cell-based
[2] = biological target: T2, DAT (Rattus norvegicus, UniProt P23977); assay: DA release assay (synaptosomes, [3H]MPP+); type: biochemical; set-up: the supernatants were retained on ice (synaptosomal preparation); from tissue; host or cells: rat caudate synaptosomes; conditions: for activation at 10 µM: Table 3; for DA Rel (%): Table 4, % EC50 of release
T2 sequence (P23977 whole entry): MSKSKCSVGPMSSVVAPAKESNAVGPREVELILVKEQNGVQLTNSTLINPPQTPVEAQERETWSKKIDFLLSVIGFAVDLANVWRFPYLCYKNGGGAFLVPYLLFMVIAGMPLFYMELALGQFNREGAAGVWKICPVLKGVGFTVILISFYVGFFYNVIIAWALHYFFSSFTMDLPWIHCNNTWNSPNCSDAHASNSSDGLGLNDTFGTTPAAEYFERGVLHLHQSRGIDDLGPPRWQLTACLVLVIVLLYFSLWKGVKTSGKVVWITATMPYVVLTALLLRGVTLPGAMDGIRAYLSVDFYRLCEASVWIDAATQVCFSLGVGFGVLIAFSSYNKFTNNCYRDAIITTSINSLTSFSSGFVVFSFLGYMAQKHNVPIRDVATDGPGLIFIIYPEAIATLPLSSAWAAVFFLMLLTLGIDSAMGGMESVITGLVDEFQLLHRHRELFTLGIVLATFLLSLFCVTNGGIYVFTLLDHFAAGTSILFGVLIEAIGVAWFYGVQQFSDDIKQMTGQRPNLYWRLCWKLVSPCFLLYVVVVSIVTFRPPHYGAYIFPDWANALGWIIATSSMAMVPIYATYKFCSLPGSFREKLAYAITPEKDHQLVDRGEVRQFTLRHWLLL
Protocol: (§1) Rat caudate (for DA release) or whole brain minus cerebellum and caudate (for NE and 5-HT release), was homogenized in ice-cold 10% sucrose containing 1 μM reserpine. Nomifensine (100 nM) and GBR12935 (100 nM) were added to the sucrose solution for [^3H]5-HT release experiments to block any potential [^3H]5-HT reuptake into NE and DA nerve terminals. For the DA release assay, 100 nM desipramine and 100 nM citalopram were added to block [^3H]MPP^+ uptake into NE and 5-HT nerves. For the NE release assay, 50 nM GBR12935 and 100 nM citalopram were added to block [^3H]MPP^+ uptake into DA and 5-HT nerves. After 12 strokes with a Potter-Elvehjem homogenizer, homogenates were centrifuged at 1000×g for 10 min at 0-4° C. and the supernatants were retained on ice (synaptosomal preparation).
(§2) After incubation to steady state, 850 μl of synaptosomes preloaded with [^3H]ligand were added to 12×75 mm polystyrene test tubes that contained 150 μl test drug in uptake buffer plus 1 mg/ml BSA. After 5 min (^3H]5-HT) or 30 min (NE and DA assays) the release reaction was terminated by dilution with 4 ml wash buffer (10 mM Tris-HCl pH 7.4 containing 0.9% NaCl at 25° C.) followed by rapid vacuum filtration over Whatman GF/B filters using a Brandel Harvester. The filters were rinsed twice with 4 ml wash buffer using the Brandel Harvester, and the retained tritium was counted by a Taurus liquid scintillation counter at 40% efficiency after an overnight extraction in 3 ml Cytoscint (ICN).
(§3) In substrate reversal experiments, statistical significance was determined using the Student's t-test.

[3] = biological target: T1, 5-HT2B receptor; assay: 5-HT2B activity, agonist; type: cell-based
[4] = biological target: T3, NET (Rattus norvegicus, UniProt Q63380); assay: NE release assay (synaptosomes, [3H]MPP+); type: biochemical; conditions: for NE Rel (%): % EC50 of release
T3 construct: the supernatants were retained on ice (synaptosomal preparation); from tissue; host or cells: rat whole brain minus cerebellum and caudate, synaptosomes
T3 sequence (Q63380 1-617): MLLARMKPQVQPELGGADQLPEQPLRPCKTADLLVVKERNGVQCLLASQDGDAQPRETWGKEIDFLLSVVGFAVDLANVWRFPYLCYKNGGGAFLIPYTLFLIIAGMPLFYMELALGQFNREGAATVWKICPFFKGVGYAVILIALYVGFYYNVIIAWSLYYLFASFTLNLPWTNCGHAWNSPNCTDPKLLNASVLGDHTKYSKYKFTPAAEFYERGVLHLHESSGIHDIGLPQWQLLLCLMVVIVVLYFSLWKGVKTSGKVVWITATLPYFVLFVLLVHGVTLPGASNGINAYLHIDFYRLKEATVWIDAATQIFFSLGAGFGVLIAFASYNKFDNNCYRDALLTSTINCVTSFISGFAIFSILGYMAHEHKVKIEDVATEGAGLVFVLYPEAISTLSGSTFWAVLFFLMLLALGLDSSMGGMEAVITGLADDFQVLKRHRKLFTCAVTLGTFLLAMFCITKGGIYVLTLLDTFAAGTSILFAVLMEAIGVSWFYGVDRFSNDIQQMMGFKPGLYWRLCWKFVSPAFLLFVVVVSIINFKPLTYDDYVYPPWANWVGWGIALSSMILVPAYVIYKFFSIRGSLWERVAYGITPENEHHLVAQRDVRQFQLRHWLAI
Protocol: as §1, §2, §3

[5] = biological target: T4, SERT (Rattus norvegicus, UniProt P31652); assay: 5-HT release assay (synaptosomes, [3H]5-HT); type: biochemical; set-up: the supernatants were retained on ice (synaptosomal preparation); from tissue; host or cells: rat whole brain minus cerebellum and caudate, synaptosomes; conditions: for activation at 10 µM / Release 5-HT (EC50 nm): Table 3; for Release 5-HT (EC50 nm): rat brain synaptosomes
T4 sequence (P31652 whole entry): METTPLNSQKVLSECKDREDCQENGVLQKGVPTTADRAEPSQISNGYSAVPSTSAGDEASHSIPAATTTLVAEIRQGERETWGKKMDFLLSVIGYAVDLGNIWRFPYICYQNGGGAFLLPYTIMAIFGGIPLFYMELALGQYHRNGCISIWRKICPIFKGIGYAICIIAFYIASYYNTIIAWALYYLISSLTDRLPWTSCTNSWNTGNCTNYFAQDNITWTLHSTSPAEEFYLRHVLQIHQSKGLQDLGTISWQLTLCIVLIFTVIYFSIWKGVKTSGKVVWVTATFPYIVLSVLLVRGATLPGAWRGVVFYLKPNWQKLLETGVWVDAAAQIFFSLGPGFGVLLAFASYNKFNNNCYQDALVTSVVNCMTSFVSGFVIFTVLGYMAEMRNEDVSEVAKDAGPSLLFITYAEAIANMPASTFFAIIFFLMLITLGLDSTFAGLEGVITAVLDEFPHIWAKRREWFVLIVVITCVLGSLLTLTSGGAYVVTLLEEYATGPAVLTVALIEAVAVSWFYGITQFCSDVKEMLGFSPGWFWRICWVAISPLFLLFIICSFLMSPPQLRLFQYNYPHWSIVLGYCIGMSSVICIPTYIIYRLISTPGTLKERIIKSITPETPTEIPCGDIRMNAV
Protocol: as §1, §2, §3

[6] = biological target: T4, SERT; assay: 5HT uptake inhibition; type: biochemical
[7] = biological target: T2, DAT; assay: DA uptake inhibition; type: biochemical; conditions: Table 5
[8] = Release NE (EC50 nm), Table 3, rat brain synaptosomes

T1 sequence (P41595 whole entry): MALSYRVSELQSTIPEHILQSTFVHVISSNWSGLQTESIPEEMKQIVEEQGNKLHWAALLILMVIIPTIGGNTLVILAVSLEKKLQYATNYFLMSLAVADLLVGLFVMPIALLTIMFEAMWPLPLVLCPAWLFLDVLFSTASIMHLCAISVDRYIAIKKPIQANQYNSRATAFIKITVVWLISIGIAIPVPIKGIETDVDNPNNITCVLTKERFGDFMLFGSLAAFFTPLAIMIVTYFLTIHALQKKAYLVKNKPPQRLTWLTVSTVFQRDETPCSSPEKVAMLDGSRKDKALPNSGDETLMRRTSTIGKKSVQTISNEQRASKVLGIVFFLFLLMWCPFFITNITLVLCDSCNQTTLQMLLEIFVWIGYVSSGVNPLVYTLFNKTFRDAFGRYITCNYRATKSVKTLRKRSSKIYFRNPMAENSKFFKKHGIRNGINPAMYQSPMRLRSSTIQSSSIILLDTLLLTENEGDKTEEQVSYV

Row | Compound | inhibition at 1 µM [1] | EC50 [2] | activation at 10 µM [2] | activation at 10 µM [3] | activation at 10 µM ([4]; Table 3) | activation at 10 µM [5] | also measured
1 | C[C@H]1NCCOC1c1cccc(Cl)c1 (stereo in doubt) [PAL594, 2-(3-chloro-phenyl)-3-methyl-morpholine] | 28% | 27 nM | 100% | 2% | 82% | 95% | EC50 ([4]; NE Rel (EC50), Table 4): 75 nM; 5HT releaser activity (in words) [5]: improvements in 5HT release; EC50 [5]: 301 nM
2 | C[C@H]1NCCOC1c1ccccc1 (some centres unmarked) [PAL55, reference compound] | – | 131 nM | – | 0% | – | – | EC50 [4, 8]: 50 nM; EC50 [5]: 7770 nM
3 | C[C@H]1NCCO[C@@H]1c1ccccc1 [PAL56, (+)-phenmetrazine, reference compound] | 42% | 87 nM | – | 0% | – | – | DA releaser activity (in words) [2]: effective DA/5HT releaser; EC50 ([4]; NE Rel (EC50), Table 4): 38 nM; EC50 [4, 8]: 37 nM; 5HT releaser activity (in words) [5]: effective DA/5HT releaser; EC50 [5]: 3250 nM
4 | C[C@@H]1NCCO[C@H]1c1ccccc1 [PAL57, reference compound] | – | 415 nM | – | 0% | – | – | EC50 [4, 8]: 63 nM; Release 5-HT (EC50 nm) [5]: inactive
5 | C[C@H]1NCCO[C@H]1c1ccccc1 [PAL60, reference compound] | – | 1460 nM | – | 0% | – | – | EC50 [4, 8]: 349 nM; Release 5-HT (EC50 nm) [5]: Inactive
6 | CC1NCCOC1(O)c1ccccc1 (centres unmarked) [PAL583, 3-methyl-2-phenylmorpholin-2-ol] | 6% | – | 29% | 0% | 69% | 0% | –
7 | CC1NCCOC1(O)c1cccc(F)c1 (centres unmarked) [PAL587, 2-(3-fluorophenyl)-3-methylmorpholin-2-ol] | 0% | – | 34% | 0% | 67% | 6% | –
8 | Cc1cccc(C2(O)OCCNC2C)c1 (centres unmarked) [PAL589, 3-methyl-2-(3′-tolyl)morpholin-2-ol] | 12% | – | 28% | 0% | 47% | 56% | –
9 | CC1NCCOC1(O)c1cccc(Cl)c1 (centres unmarked) [PAL590, 2-(3-chlorophenyl)-3-methylmorpholin-2-ol] | 16% | – | 39% | 0% | 62% | 41% | –
10 | CC1NCCOC1c1cccc(F)c1 (centres unmarked) [PAL593, 2-(3-fluoro-phenyl)-3-methyl-morpholine] | 1% | – | 100% | 0% | 93% | 95% | –
11 | c1ccc(C2CNCCO2)cc1 (centres unmarked) [PAL632] | 12% | 86 nM | 98% | 2% | 96% | 31% | EC50 ([4]; NE Rel (EC50), Table 4): 79 nM; EC50 [5]: 20300 nM
12 | Fc1ccc(C2CNCCO2)cc1 (centres unmarked) [PAL635, 2-(4-fluorophenyl)morpholine] | – | 529 nM | 95% | 0% | 100% | 88% | EC50 ([4]; NE Rel (EC50), Table 4): 285 nM; EC50 [5]: 2400 nM
13 | CC1NCCOC1c1ccc2ccccc2c1 (centres unmarked) [PAL 704, 3-Methyl-2-(2′-Naphthyl)morpholine hydrochloride] | – | 111 nM | – | – | – | – | DA releaser activity (in words) [2]: DA/NE releasers; 5HT uptake inhibition (in words) [6]: 5HT uptake inhibitors; EC50 [6]: 105 nM; NE releaser activity (in words) [4]: DA/NE releasers; EC50 ([4]; NE Rel (EC50), Table 4): 203 nM
14 | CC1NCCOC1c1ccc(Cl)c(Cl)c1.Cl (centres unmarked) [PAL 788, 3-Methyl-[(3′,4′-Dichloro)-2-Phenyl]morpholine hydrochloride] | – | – | – | – | – | – | DA releaser activity (in words) [2]: DA/NE releasers; DA Rel (%) [2]: 60%; 5HT uptake inhibition (in words) [6]: 5HT uptake inhibitors; 5HT Up (%) ([6]; Table 4): 95%; NE releaser activity (in words) [4]: DA/NE releasers; NE Rel (%) ([4]; Table 4): 98%
15 | COc1cccc(C2OCCNC2C)c1.COc1cccc(C2OCCNC2C)c1.O=C(O)/C=C/C(=O)O (centres unmarked) [PAL 823, 3-Methyl-[(3′-Methoxy)-2-Phenyl]morpholine (0.5 fumarate)] | – | – | – | – | – | – | DA Rel (%) [2]: 96%; NE Rel (%) ([4]; Table 4): 86%; 5HT Rel (%) ([5]; Table 4, % EC50 of release): 78%
16 | C[C@H]1CO[C@@H](c2ccc(Cl)cc2)CN1 [PAL 899, (2S,5S)-2-(4-Chloro-phenyl)-5-methyl-morpholine] | – | – | – | – | – | – | DA Up (%) [7]: 90%
17 | Cc1ccc([C@H]2CN[C@@H](C)CO2)cc1 [PAL 914, (2S,5S)-5-Methyl-2-p-tolyl-morpholine] | – | – | – | – | – | – | DA Up (%) [7]: 88%
